Key:
[1] = tested on: MCT-induced pulmonary arterial hypertension in rat; assay: Rat monocrotaline (MCT) model of pulmonary arterial hypertension; assay type: in vivo; details: 30 mg/kg oral gavage twice a day for 21 days; 60 mg/kg MCT s.c.; male Wistar rats; Day 22
Protocol: Example 4: Rat Model of Pulmonary Arterial Hypertension
Male Wistar rats (100-150 g at start of study) (Charles River Laboratories, Wilmington, Mass.) were housed two per cage and maintained in a humidity—(40-60%) and temperature—(68-72° F.) controlled facility on a 12 hr:12 hr light/dark cycle (lights on at 6:30 am) with free access to food (Harlan Teklad, Orange Calif., Rodent Diet 8604) and water. Rats were allowed one week of habituation to the animal facility before testing.
The rat monocrotaline (MCT) model is a standard and well-accepted model of pulmonary arterial hypertension. MCT induces acute pulmonary endothelial damage associated with pulmonary vascular inflammation. […]
Rats were randomly given a single subcutaneous injection of either 60 mg/kg MCT (Sigma, St. Louis, Mo.) or 0.9% saline (sham) and assigned to receive oral administration of 20% hydroxypropyl beta-cyclodextrin (vehicle) or test compound (30 mg/kg; FIGS. 1 and 2). […] Heart chamber weights were measured on Day 22. […] The ratio of right ventricular (RV) weight to left ventricle plus septum (LV+S) weight (this ratio is indicated as “RV/(LV+S)” in FIGS. 1 and 2) was calculated as an index of the hypertrophic response to the induced pulmonary arterial hypertension and, as such, as an index of a test compound's therapeutic efficacy for pulmonary arterial hypertension.

[2] = target: human prostacyclin (PGI2) receptor (Homo sapiens (Human), UniProt P43119); assay: HTRF assay for direct cAMP measurement; assay type: cell-based; details: recombinant CHO-K1 cells stably transfected with human prostacyclin receptor; cAMP increase
Text: Example 2: Homogeneous Time-Resolved Fluorescence (HTRF®) Assay for Direct cAMP Measurement
Compounds were screened for agonists of the human prostacyclin (PGI2) receptor using the HTRF® assay for direct cAMP measurement (Gabriel et al., ASSAY and Drug Development Technologies, 1:291-303, 2003) and recombinant CHO-K1 cells stably transfected with human prostacyclin receptor. CHO-K1 cells were obtained from ATCC® (Manassas, Va.; Catalog # CCL-61). An agonist of the prostacyclin receptor was detected in HTRF® assay for direct cAMP measurement as a compound which increased cAMP concentration. HTRF® assay also was used to determine EC50 values for prostacyclin receptor agonists.
The HTRF® assay kit was purchased from Cisbio-US, Inc. (Bedford, Mass.; Catalog #62AM4PEC). The HTRF® assay supported by the kit is a competitive immunoassay between endogenous cAMP produced by the CHO-K1 cells and tracer cAMP labeled with the dye d2. The tracer binding is visualized by a monoclonal anti-cAMP antibody labeled with Cryptate. The specific signal (i.e., fluorescence resonance energy transfer, FRET) is inversely proportional to the concentration of unlabeled cAMP in the standard or sample.
The fluorescence ratio (665 nm/620 nm) of the standards (0.17 to 712 nM cAMP) included in the assay was calculated and used to generate a cAMP standard curve according to the kit manufacturer's instructions. The fluorescence ratio of the samples (test compound or compound buffer) was calculated and used to deduce respective cAMP concentrations by reference to the cAMP standard curve.
The HTRF® assay was carried out using a two-step protocol essentially according to the kit manufacturer's instructions, in 20 μL total volume per well in 384-well plate format (ProxiPlates; PerkinElmer, Fremont, Calif.; catalog #6008280). To each of the experimental wells was transferred 3000 recombinant CHO-K1 cells in 5 μL assay buffer (phosphate buffered saline containing calcium chloride and magnesium chloride (Invitrogen, Carlsbad, Calif.; catalog #14040) supplemented with IBMX (100 μM) and rolipram (10 μM) (phosphodiesterase inhibitors; Sigma-Aldrich, St. Louis, Mo.; catalog #15879 and catalog #R6520, respectively) and 0.1% bovine serum albumin (BSA) fraction V (Sigma-Aldrich; catalog # A3059)), followed by test compound in 5 μL assay buffer or 5 μL assay buffer. The plate was then incubated at room temperature for 1 h. […] The plate was then further incubated at room temperature for 1 h, after which the assay plate was read.
The HTRF® readout was accomplished using a PHERAstar (BMG LABTECH Inc., Durham, N.C.) or EnVision™ (PerkinElmer, Fremont Calif.) microplate reader.

[3] = tested on: human platelet-rich plasma (PRP); assay: Human platelet aggregation inhibition test (ADP-induced, PRP); assay type: cell-based; details: inhibition of aggregation induced by 1x10^-5 M ADP in human PRP
Protocol: Example 3: Human Platelet Aggregation Inhibition Test
Blood collected from healthy human volunteers in aqueous trisodium citrate solution was centrifuged at 150 g for 15 min and the upper layer was recovered to obtain platelet-rich plasma (PRP). The residual blood was centrifuged at 3000 g for 10 min and the supernatant was collected as platelet-poor plasma (PPP). Platelet concentration in the PRP was determined using the Z series Beckman Coulter particle counter (Beckman, Fullerton, Calif.) and adjusted to 250,000 platelets/μL using PPP. 480 μL of PRP was pre-incubated at 37° C. and stirred at 1200 rpm with 10 μL aqueous test compound solution for 1 min prior to induction of aggregation by the addition of 10 μL of aqueous adenosine diphosphate (ADP) solution to adjust the final ADP concentration in the PRP to 1×10^−5 M. The maximal amplitude of aggregation response within 3 min was determined and measured in triplicate using the Chronolog model 490 aggregometer (Chrono-log Corp., Havertown, Pa.). Percent inhibition of aggregation was calculated from the maximum decrease in optical density of the control (addition of water in place of the test compound solution) sample and of the samples containing test compound. The test compound was added to adjust the final concentration to the range 10^−9 to 10^−4 M, and IC50 values were determined by inhibition percentage of aggregation at each concentration.

Chain of human prostacyclin (PGI2) receptor (P43119 whole entry): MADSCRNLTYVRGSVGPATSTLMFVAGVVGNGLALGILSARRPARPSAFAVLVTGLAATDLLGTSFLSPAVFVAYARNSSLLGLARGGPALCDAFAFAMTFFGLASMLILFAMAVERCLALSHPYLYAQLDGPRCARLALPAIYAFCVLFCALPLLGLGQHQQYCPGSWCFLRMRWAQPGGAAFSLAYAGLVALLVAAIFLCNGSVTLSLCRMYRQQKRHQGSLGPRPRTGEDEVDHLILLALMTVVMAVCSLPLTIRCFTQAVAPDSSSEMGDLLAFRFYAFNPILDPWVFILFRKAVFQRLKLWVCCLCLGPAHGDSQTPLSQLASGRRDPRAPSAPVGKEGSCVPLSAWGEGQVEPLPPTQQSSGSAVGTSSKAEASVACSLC

SMILES | right ventricle hypertrophic response, RV/(LV+S) [1] | EC50 [2] [nM] | IC50 [3] [nM]
COc1cccc(-c2c(-c3ccccc3)nn(C[C@H]3CC[C@@H](COCC(=O)O)CC3)c2C)c1 [Compound 14, 2-(((1s,4s)-4-((4-(3-Methoxyphenyl)-5-methyl-3-phenyl-1H-pyrazol-1-yl)methyl)cyclohexyl)methoxy)acetic Acid] | inhibited the hypertrophic response | – | –
COc1cccc(-c2c(-c3ccccc3)nn(C[C@H]3CC[C@@H](COCC(=O)O)CC3)c2SC)c1 [Compound 31, 2-(((1s,4s)-4-((4-(3-Methoxyphenyl)-5-(methylthio)-3-phenyl-1H-pyrazol-1-yl)methyl)cyclohexyl)methoxy)acetic Acid] | inhibited the hypertrophic response | – | –
CCSc1c(-c2cccc(OC)c2F)c(-c2ccccc2)nn1C[C@H]1CC[C@@H](COCC(=O)O)CC1 [Compound 90, 2-(((1s,4s)-4-((5-(Ethylthio)-4-(2-fluoro-3-methoxyphenyl)-3-phenyl-1H-pyrazol-1-yl)methyl)cyclohexyl)methoxy)acetic Acid] | – | 7 | –
CSc1c(-c2ccc(C)s2)c(-c2ccccc2)nn1C[C@H]1CC[C@@H](COCC(=O)O)CC1 [Compound 111, 2-(((1s,4s)-4-((5-(Methylthio)-4-(5-methylthiophen-2-yl)-3-phenyl-1H-pyrazol-1-yl)methyl)cyclohexyl)methoxy)acetic Acid] | – | 16 | 28
CSc1c(-c2cncc(F)c2)c(-c2ccccc2)nn1C[C@H]1CC[C@@H](COCC(=O)O)CC1 [Compound 135, 2-(((1s,4s)-4-((4-(5-Fluoropyridin-3-yl)-5-(methylthio)-3-phenyl-1H-pyrazol-1-yl)methyl)cyclohexyl)methoxy)acetic Acid] | – | – | 220
O=C(O)COC[C@H]1CC[C@@H](Cn2nc(-c3ccccc3)c(-c3ccccc3)c2SCCO)CC1 [Compound 146, 2-(((1s,4s)-4-((5-(2-Hydroxyethylthio)-3,4-diphenyl-1H-pyrazol-1-yl)methyl)cyclohexyl)methoxy)acetic Acid] | – | – | 70
N#CCSc1c(-c2ccccc2)c(-c2ccccc2)nn1C[C@H]1CC[C@@H](COCC(=O)O)CC1 [Compound 184, 2-(((1s,4s)-4-((5-(Cyanomethylthio)-3,4-diphenyl-1H-pyrazol-1-yl)methyl)cyclohexyl)methoxy)acetic Acid] | – | 11 | 20
COc1cccc(-c2c(-c3ccccc3)nn(C[C@H]3CC[C@@H](COCC(=O)O)CC3)c2SCCO)c1 [Compound 198, 2-(((1s,4s)-4-((5-(2-Hydroxyethylthio)-4-(3-methoxyphenyl)-3-phenyl-1H-pyrazol-1-yl)methyl)cyclohexyl)methoxy)acetic Acid] | – | 2 | –

From patent US10214518B2, “Pyrazolyl substituted carbonic acid derivatives as modulators of the prostacyclin (PGI2) receptor useful for the treatment of disorders related thereto” (Arena Pharmaceuticals, Inc., priority 2008, dated 2019)
